# Assay results published in the pKa sets of Baltruschat and Czodrowski (2020).
# Conditions: acidic group
row,SMILES,pKa
1,COc1ccc(-c2nc3nnc(SC)nc3[nH]2)c(OC)c1,7.69
2,N#CCCNC(CC(N)=O)C(=O)O (stereo unspecified),6.46
3,N#Cc1ccc(O)c(O)c1,7.72
4,C=CC[NH+](CC=C)CCCNC(=O)/C=N/O,8.14
5,[NH3+]CCCCCC(=O)O,4.37
6,O=c1[nH]c(=O)c2ncn([C@H]3O[C@@H](CO)[C@H](O)[C@@H]3O)c2[nH]1,5.72
7,CSc1ncc2[nH]cnc2n1,8.91
8,[O-]c1ccccc1-c1ccccc1O,14.7
9,N#C/C(=C\C(=O)O)c1ccccc1,3.07
10,CC[NH2+]CC(=O)O,2.31
11,CC(C)(C)c1cc([N+](=O)[O-])cc(C(C)(C)C)c1O,6.92
12,C=C(C)C(=O)O,4.66
13,CC(C)=CCC1C(=O)C(C(=O)CC(C)C)C(=O)C(CC=C(C)C)(CC=C(C)C)C1=O (stereo unspecified),6.18
14,Nc1ccc(B(O)O)c([N+](=O)[O-])c1,9.64
15,C[NH+](C)Cc1cc(Cl)ccc1O,8.02
16,Cc1c(C)c2c(c(C)c1OP(=O)([O-])O)CCC(C)(CCC[C@@H](C)CCC[C@@H](C)CCCC(C)C)O2 (stereo partly specified),9.44
17,Brc1ccc2c(c1)C([P+](c1ccccc1)(c1ccccc1)c1ccccc1)c1ccccc1-2 (stereo unspecified),7.33
18,Cc1cc(O)n[nH]1,10.9
19,N#CC(c1ccc(Cl)cc1)c1ccc([N+](=O)[O-])cc1 (stereo unspecified),10.7
20,NS(=O)(=O)c1ccc(Cl)c(Cl)c1,8.94

row,SMILES,pKa
1,COc1ccc(O)c([N+](=O)[O-])c1,7.39
2,CN1Cc2[nH]cnc2N(C)C1=O,11.2
3,CCSc1nccc(O)[n+]1C,0.9
4,CCC/C=C(/C)C(=O)O,4.44
5,NC(=O)CCCCCCCCC(=O)NO,9.49
6,O=CC1CCCC1=O (stereo unspecified),5.83
7,O=C1CC(=O)NC(=S)N1,4.15
8,C[NH+]1C[C@H](C(=O)O)C[C@@]2(O)c3cccc4[nH]cc(c34)C[C@@H]12,3.42
9,C[C@H]([NH3+])C(=O)N[C@@H](Cc1c[nH]c[nH+]1)C(=O)O,2.73
10,Cc1noc(NS(=O)(=O)c2ccc(N)cc2)c1C,4.16
11,Nc1nc2nc[nH]c2c([O-])[nH+]1,9.39
12,c1cc2[nH]cnc2cn1,10.9
13,O=c1[nH]cc(SSc2c[nH]c(=O)[nH]c2=O)c(=O)[nH]1,8
14,CC/C=C/CC(=O)N[C@H]1C(=O)N2[C@H]1SC(C)(C)[C@H]2C(=O)O,2.84
15,Oc1ccc(F)cc1CN1CCOCC1,10.5
16,CCCc1c(O)n2c3cc(C)ccc3nc(N(C)C)n2c1=O,6.55
17,O=[N+]([O-])c1ccc(O)c(C[NH+]2CCOCCOCCOCCOCCOCC2)c1,5.77
18,O=c1cc(O)c2ccccc2o1,4.1
19,[NH3+]CC(=O)N[C@@H](Cc1c[nH]c[nH+]1)C(=O)O,2.61
20,FC(F)(F)c1cc(C(F)(F)F)[nH]n1,7.51

# Second part, the compound after the results:
row,pKa,SMILES
1,10.9,c1ccc(CSc2nc(SCc3ccccc3)c(-c3ccccc3)[nH]2)cc1
2,8.32,CC(/N=N/O)c1ccccc1 (stereo unspecified)
3,7.98,O=S(=O)(Nc1ccccc1)c1ccc(Cl)cc1
4,-7.1,O=[N+]([O-])c1cccc(S(=O)(=O)O)c1
5,10.2,CC(=O)C(Cc1ccc(Cl)cc1)C(C)=O
6,8.74,OB(O)c1ccccc1
7,3.6,O=C(O)c1ccccc1F
8,2.59,Cc1ccc(C(=O)S)cc1
9,3.65,O=C(O)c1c2ccccc2cc2ccccc12
10,3.76,CC(C)(O)C(C(=O)O)c1ccc(-c2ccccc2)cc1 (stereo unspecified)
11,7.5,Cc1cc(/N=N/c2nc3ccccc3s2)c2cccnc2c1O
12,2.28,O=P(O)(O)C([NH2+]Cc1cc[nH+]cc1)c1ccccc1O (stereo unspecified)
13,11.7,NS(=O)(=O)c1ccc(/N=C/c2ccccc2[O-])cc1
14,1.51,Cc1c(Cc2c(C)n(C)[n+](-c3ccccc3)c2O)c(=O)n(-c2ccccc2)n1C
15,6.68,CC(C)c1cccc(=O)c(O)c1Br
16,10.6,Cc1cccc(C)c1O
17,8.9,CC1=CC(=Nc2ccc(O)cc2)C=C(C)C1=O
18,6.3,Cc1ccc(Br)c(O)c(=O)c1
19,8.3,CCCOC(=O)c1ccc(O)cc1
20,9.91,C=Cc1ccc(O)cc1
21,12.8,OC(c1ccccc1)c1ccccn1 (stereo unspecified)
22,2.05,O=S(O)CCCc1ccccc1
23,10.7,O=[N+]([O-])c1cccc(/C=N\O)c1
24,13.7,O=C(Cc1cccnc1)c1ccccc1

# Same assay, conditions: basic group
row,SMILES,pKa
1,Nc1nc([O-])nc2nc[nH]c12,8.99
2,N[C@@H](C(=O)[O-])[C@H](O)C(=O)[O-],9
3,CN(C)c1ccc([N+](=O)[O-])cc1,0.69
4,CSc1ncc2[nH]cnc2n1,1.91
5,CN1CCCC[C@H]1c1cccnc1,5.42
6,Cc1ccc(NCCNc2ccc(C)cc2)cc1,4

# More lines, now with the values ahead:
row,pKa,SMILES
1,6.55,Cc1nc2ccccc2n1C
2,7.23,C1=C(c2nc3ccccc3o2)C2CCN1CC2
3,7.95,CCN(CC)CC(=O)Nc1ccccc1C
4,2.7,c1ccc(CSc2nc(SCc3ccccc3)c(-c3ccccc3)[nH]2)cc1
5,5.6,c1coc(-c2ccncc2)c1
6,10.6,Cn1cc/c(=N\N)c2ccccc21
7,3.78,CC(C)(C)c1ccccc1N
8,4.49,Nc1nc(N)c2cnn(-c3ccccc3)c2n1
9,-2.81,C(=C/c1nnnn1-c1ccccc1)/c1ccccc1
10,10.4,N=C(N)N(c1ccccc1)c1ccccc1
11,4.34,NOCc1ccccc1
